In ChEMBL document CHEMBL1123976, “Synthesis and pharmacological characterization of 1-phenyl-, 4-phenyl-, and 1-benzyl-1,2,3,4-tetrahydroisoquinolines as dopamine receptor ligands” (J Med Chem, 1988):

Experiments:
D(1A) dopamine receptor = D(1A) dopamine receptor (Rattus norvegicus, UniProt P18901)
D(2) dopamine receptor = D(2) dopamine receptor (Rattus norvegicus, UniProt P61169)
Description: Inhibition of [3H]spiperone binding to Dopamine receptor D2 at 0.02 nM

[1] = Inhibition of Dopamine-stimulated adenylate cyclase obtained from rat corpus striatum was determined by the conversion of [32P]ATP to [32P]-cAMP

Sequence of D(2) dopamine receptor (P61169 whole entry): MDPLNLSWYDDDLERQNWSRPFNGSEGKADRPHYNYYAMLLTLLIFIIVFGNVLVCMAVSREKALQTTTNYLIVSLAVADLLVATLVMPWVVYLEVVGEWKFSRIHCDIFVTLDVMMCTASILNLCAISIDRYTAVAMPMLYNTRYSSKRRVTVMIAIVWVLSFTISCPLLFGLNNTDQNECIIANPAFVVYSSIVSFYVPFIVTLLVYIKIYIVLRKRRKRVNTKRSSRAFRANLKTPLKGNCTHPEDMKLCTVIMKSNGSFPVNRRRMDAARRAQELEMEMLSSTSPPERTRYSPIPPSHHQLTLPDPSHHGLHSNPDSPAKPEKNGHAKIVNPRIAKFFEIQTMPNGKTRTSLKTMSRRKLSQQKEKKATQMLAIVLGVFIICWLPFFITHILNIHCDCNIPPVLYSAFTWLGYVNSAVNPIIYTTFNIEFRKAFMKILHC
Sequence of D(1A) dopamine receptor (P18901 whole entry): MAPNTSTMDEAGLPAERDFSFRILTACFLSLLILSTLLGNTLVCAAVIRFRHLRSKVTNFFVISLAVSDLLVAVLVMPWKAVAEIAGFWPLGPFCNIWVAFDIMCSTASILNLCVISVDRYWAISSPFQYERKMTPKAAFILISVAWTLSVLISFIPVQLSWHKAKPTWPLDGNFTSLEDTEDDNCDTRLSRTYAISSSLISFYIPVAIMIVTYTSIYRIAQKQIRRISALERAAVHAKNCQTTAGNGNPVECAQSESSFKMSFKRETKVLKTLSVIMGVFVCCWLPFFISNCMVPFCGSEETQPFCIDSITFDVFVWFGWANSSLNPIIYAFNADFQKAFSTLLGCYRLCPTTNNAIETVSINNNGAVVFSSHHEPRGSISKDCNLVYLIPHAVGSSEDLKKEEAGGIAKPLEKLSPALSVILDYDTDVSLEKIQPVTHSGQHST

Row | Structure (SMILES) | Ki (D(1A) dopamine receptor) | Ki (D(2) dopamine receptor) | Ki [1]
1 | Oc1cc2c(cc1Cl)CCN[C@@H]2c1ccccc1 | 743 nM | 26300 nM | 
2 | CN1CCc2cc(Cl)c(O)cc2[C@H]1c1ccccc1 | 442 nM | 19200 nM | 
3 | CCCN1CCc2cc(Cl)c(O)cc2[C@@H]1c1ccccc1 | 179 nM | 1900 nM | 
4 | Oc1cc2c(cc1Cl)CCN[C@H]2c1ccccc1 | 140 nM | 3750 nM | 
5 | CN1Cc2cc(Cl)c(O)cc2C(c2ccccc2)C1 (racemic) | 174 nM | 522 nM | 
6 | Oc1cc2c(cc1Cl)CNCC2c1ccccc1 (racemic) | 565 nM | 3620 nM | 

The next compounds have a lower Ki (D(1A) dopamine receptor) than those just listed; values first:

Row | Ki (D(1A) dopamine receptor) | Ki (D(2) dopamine receptor) | Ki [1] | Structure (SMILES)
7 | 2.35 nM | 676 nM |  | Oc1cc2c(cc1Cl)CCNCC2c1ccccc1 (stereo unspecified)
8 | 6.6 nM | 1850 nM |  | CN1CCc2cc(Cl)c(O)cc2[C@@H]1c1ccccc1
9 | 12.5 nM | 915 nM | 8.98 nM | CN1CCc2cc(Cl)c(O)cc2C1c1ccccc1 (racemic)
10 | 53.2 nM | 287 nM |  | CN1CCc2cc(Cl)c(O)cc2C1Cc1ccccc1 (racemic)
